According to US7906334B2, “Method for reproducing conifers by somatic embryogenesis using lactose as a carbon source” (Cellfor Inc., priority 2003, dated 2011):

Assays:
[1] = test system: radiata pine megagametophytes containing immature zygotic embryos; assay: Effect of carbon source on induction of radiata pine; type: cell-based, Pinus radiata (radiata pine)
Experimental: Female gametophytes containing immature zygotic embryos were used as explants. The cones were surface sterilised in 10% bleach solution for 15 min. They were rinsed 3 times with sterile water, air dried and stored in polyethylene bags at 4° C. until used. Seeds were sterilised in 3% hydrogen peroxide containing 0.1% Tween 20 and rinsed in sterile deionized water. Megagametophytes containing the immature embryos were plated on MSG (standard radiata pine medium containing sucrose, Table B) and on TX medium (Table A) supplemented with 2.2 mg/l 2,4-D, 1 mg/l BA and 0.3% Phytagel and containing 1.5% galactose and 0.5% sucrose. Casein hydrolysate was reduced to 1000 mg/l (TXR medium).
Cultures were maintained on the two media by subculturing the embryogenic tissue every 10 to 14 days to fresh media. All cultures were incubated at 23° C. in the dark. Suspension cultures were initiated as 2 g of tissue were introduced to 50 ml of TXR liquid medium containing 1.0% sucrose. […]
One ml of TXR medium containing 0.1 g tissue consisting of early stage somatic embryos was plated on modified ½ LV maturation medium (Table C) in which glutamine was reduced to 500 mg/l and casein hydrolysate to 1000 mg/l. […] Twelve to fourteen weeks later, mature somatic embryos were counted and treatments were evaluated based on the number of somatic embryos per gram fresh weight.

[2] = test system: radiata pine lines RP1, RP2, RP3, and RP4; assay: Effect of carbon source on somatic embryo development of radiata pine in liquid cultures; type: cell-based, Pinus radiata (radiata pine); details: for # SE/g FW ± sd / Grams FW at the end of proliferation stage (from 1.5 g): 1.0% sucrose or 3.0% galactose in TXR prematuration media I and II; for tissue morphology: tissue induced and maintained on MSG sucrose or TXR galactose
Description: Tissue induced on MSG containing sucrose was further maintained on MSG sucrose medium, and tissue induced on TXR galactose was maintained on TXR medium containing galactose as described in Example 6. The tissue morphology of the lines induced on galactose was different from that induced on sucrose. […] The lines used in this study were RP1, RP2, RP3, and RP4.
Suspension cultures were initiated as described in Example 6. These cultures were maintained in liquid media for 20-28 days by transfers to fresh maintenance medium every 10 to 14 days. Up to five fold increase of the tissue was estimated at the end of each 10 to 14 day transfer.
In order to study the effect of galactose on embryo development after the proliferation stage, 2 g tissue was further transferred to 250 ml flasks, containing 50 ml of TXR prematuration medium I supplemented with either 1.0% sucrose or 3.0% galactose. As with loblolly pine cultures, prematuration I requires reduction of hormones either by reducing the auxin and cytokinin concentrations to optimally about 1/20 of the concentration of proliferation step, or by adding charcoal at about 0.01 to 1%, or a combination of both.
After the 10-14 day period, 1.5 g tissue was transferred to 250 ml flasks containing 50 ml TXR prematuration medium II to which either 1.0% sucrose or 3.0% galactose and 90 μM ABA were added.
Early stage somatic embryos were collected after 10 to 14 days and matured on modified ½ LV maturation medium as described in Example 6.

[3] = test system: loblolly pine lines LP1 and LP3; assay: Effect of galactose and galactose-containing sugars during proliferation and prematuration on SE yield; type: cell-based, Pinus taeda (loblolly pine); design: Amount of tissue at the end of the preculture II stage: unit not given here; details: for # SE/g FW / Amount of tissue at the end of the preculture II stage: 1% sucrose, 1.5% maltose, 1.5% lactose or 0.75% galactose
Experimental: The finding that loblolly pine cultures were capable of utilising galactose is unique. In order to further investigate these phenomenon two lines, LP1 and LP3, were cultured on semi-solid TX medium containing 1.0% lactose and 0.5% sucrose. Cultures were maintained by subculturing the embryogenic tissue every 10 to 14 days to fresh media. All cultures were incubated at 23° C. in the dark. Suspension cultures were initiated as described in Example 3, however, TX medium was supplemented with either 1% sucrose, 1.5% maltose, 1.5% lactose, or 0.75% galactose. These cultures were maintained in liquid media for 4 weeks by weekly transfers to fresh maintenance or prematuration media. After the 4˜week period, 1 ml of the liquid medium containing 0.1 g of tissue consisting of early stage somatic embryos was plated on each […] plates containing ½ LV maturation medium. This medium contained 120 μM ABA and 6.0% sucrose and 1% Phytagel. Eight to ten weeks later, mature somatic embryos were counted and treatments were evaluated based on the number of somatic embryos per gram fresh weight (Table 5).

[4] = test system: Douglas fir embryogenic tissue; assay: Medium osmolarity before and after one-week tissue inoculation; type: cell-based, Pseudotsuga menziesii (Douglas fir); details: medium with 0.5% galactose, 1% lactose, 0.5% mannitol or 0.5% glucose
Description: More change of medium osmolarity occurred during week 2 than week 1. The medium osmolarity changed little when lactose or mannitol was used in the media.

[5] = test system: Douglas fir embryogenic tissue, cell line DF-2; assay: Effects of carbohydrates on liquid maintenance of Douglas fir embryogenic tissue; type: cell-based, Pseudotsuga menziesii (Douglas fir); details: 3 weeks suspension maintenance/bulking-up, 0.5% galactose, 1% lactose, 0.5% mannitol
Experimental: The culture medium for Douglas fir was TX medium (see Table A) with the following additives: glutamine 100 mg., Casein hydrolysate 100 mg., and pH 5.8. The following compounds were added into the basal medium for Douglas fir somatic embryo development at different stages: • 1) Induction medium: 18 μM 2,4-D and 9 μM BA, phytagel 0.28%, sucrose 1% • 2) Solid maintenance medium: 9 μM 2,4-D and 4.5 μM BA, phytagel 0.28%, sucrose 1%. • 3) Liquid maintenance and bulking-up medium: 9 μM 2,4-D and 4.5 μM BA, different carbon sources for experiments. • 4) Liquid pre-treatment medium: 20 (first week) or 30 μM ABA (second week), 10% PEG4000 (first week) or PEG1500 (second week), different carbon sources as described in examples below. • 5) Solid maturation media: TX (Table A) plus 0.02% NH4NO3 • Medium I. 40 μM ABA, 10% PEG 1500, maltose 2.5%, phytagel 0.6% • Medium II. 60 μM ABA, 10% PEG1500, maltose 2.5% and sucrose 1%, phytagel 0.8% • Medium III. 70 μM ABA, 6% PEG1500, sucrose 6%, phytagel 1%.
Embryogenic tissue was induced from immature zygotic embryos. The cones and seeds were surface-sterilised as described for pines, and embryos were dissected out from megagametophytes. The embryos, with the attachment of suspensors to their megagametophytes, were placed on the surface of induction medium. The culture was kept in darkness at 23° C. Embryogenic tissue was sub-cultured once every two weeks onto solid maintenance medium.
Embryogenic tissue of Douglas fir was collected from solid maintenance culture and one gram of tissue was transferred into a 200 ml flask containing 50 ml TX (see Table A) liquid maintenance medium. The liquid maintenance medium was supplied with different sugars (Table 8).
The tissue was drained, weighed and sub-cultured once per week. During a culture period of three weeks, the highest tissue growth was found in the culture with glucose as the major carbon source. The media containing sucrose, maltose and galactose also supported a fast tissue growth. With these latter sugars, tissue increased to 68 to 100 fold in three weeks. Tissue grew little in the media containing lactose or mannitol. […] Similar results were obtained within two cell lines, DF-7A and DF-2.

[6] = test system: Suspension cultures of loblolly lines LP1, LP2, LP3, LP4 and LP5; assay: Effect of carbon source on liquid maintenance: growth rate and yield of somatic embryos; type: cell-based, Pinus taeda (loblolly pine); details: 1% sucrose; for # SE/g FW ± sd: 1.5% maltose or 1.5% lactose for 4 weeks in liquid, then 8-10 weeks on 1/2 LV maturation medium; for Average amount of tissue produced after 4 weeks in liquid (FW g): 1.5% maltose or 1.5% lactose in maintenance and prematuration I and II, started with 2 g
Experimental: Suspension cultures of loblolly lines LP1, LP2, LP3, LP4 and LP5 were started with 2 g of tissue introduced to 50 ml of TX liquid medium containing different sugars—1% sucrose, 1.5% maltose, or 1.5% lactose. These cultures were maintained in the same liquid media for 2 weeks by weekly transfers to fresh maintenance medium containing the above sugars. Then, 2 g of tissue produced in each maintenance medium was transferred to prematuration media I, containing the same carbon source as the maintenance media. After one week, 1.5 g of tissue from each prematuration medium I was transferred to prematuration media II containing the same sugars. After the 4 week period in liquid media, early stage somatic embryos were collected and plated on ½ LV maturation medium containing 120 μM ABA and 6.0% sucrose and 1% Phytagel. Eight to ten weeks later, mature somatic embryos were counted and treatments were evaluated based on the number of somatic embryos per gram fresh weight (SE/g FW). Table 2 summarises the tissue yield at the end of the 4-week period and the number of mature somatic embryos produced for each line.

[7] = test system: loblolly pine embryogenic tissue; assay: Effect of carbon source on solid maintenance of loblolly pine; type: cell-based, Pinus taeda (loblolly pine); details: semi-solid TX medium; 1% sucrose, or 1.5% lactose and 0.025% glucose
Experimental: Tissue induced on sucrose from Example 1 was further maintained on the semi-solid TX medium containing 1% sucrose, and tissue induced on lactose was maintained on semi-solid TX medium containing 1.5% lactose and 0.025% glucose. The tissue morphology of the lines induced on lactose was different from the ones induced on sucrose. […] In order to further increase the proliferation rate, 0.5% sucrose was added to the TX 1.5% lactose-containing medium in place of 0.025% glucose. This medium provided a reasonable bulk-up rate, and growth of embryos was more synchronized than in the 1% sucrose medium.

[8] = additional glucose 0%, 0.5% glucose, 1% sucrose, 1% maltose

`O=C[C@H](O)[C@@H](O)[C@@H](O)[C@H](O)CO` [Galactose] was tested. Which “Induction success, galactose compared with sucrose medium” value ([1]; galactose as carbon source) did it give?
The value was “greater than three times higher”.

What about the “subsequent yields of mature embryos, galactose compared with sucrose medium” value ([1]; tissues induced on galactose) of the same compound?
Its value is “almost double”.

And the “# SE/g FW ± sd” value [2]?
Its value is 405.3 ± 10 SE/g FW.

And the “Grams FW at the end of proliferation stage (from 1.5 g)” value [2]?
Its value is 9.5 ± 2 g.

And the Tissue growth increase ([2]; galactose as carbon source)?
The Tissue growth increase was “more than 5 times”.

What about the “number of mature somatic embryos at the end of maturation” value ([2]; galactose as carbon source) of the same compound?
Its value is “doubled”.

And the tissue morphology [2]?
Its tissue morphology is “more early stage immature embryos and a limited amount of suspensor type of surrounding tissue”.

What about the “# SE/g FW” value ([3]; line LP1) of the same compound?
Its value is 216 ± 8 SE/g FW.

What about the “Amount of tissue at the end of the preculture II stage” value (from here on “Amount … of the preculture II stage”) ([3]; line LP1) of the same compound?
The value was 59.45.

What about the “# SE/g FW” value ([3]; line LP3) of the same compound?
Its value is 172 ± 5 SE/g FW.

And the “Amount … of the preculture II stage” value ([3]; line LP3)?
The value was 8.65.

What about the “Osmolarity before inoculation (mmol/kg, mean ± SD)” value [4] of the same compound?
The value was 71.67 ± 1.15 mmol/kg.

And the “Tissue growth (fold, mean ± SD)” value [5, 8]?
Its value is 68.64 ± 4.58 fold.

What about the “Tissue growth (fold, mean ± SD)” value ([5]; additional glucose 0.025%) of the same compound?
Its value is 97.02 ± 2.67 fold.

What does the source list for `OC[C@H]1O[C@H](O[C@H]2[C@H](O)[C@@H](O)[C@H](O)O[C@@H]2CO)[C@H](O)[C@@H](O)[C@@H]1O` [Maltose, maltose]?
# SE/g FW ± sd [6]: 209 ± 28 SE/g FW; Average amount of tissue produced after 4 weeks in liquid (FW g) [6]: 204.45 g; # SE/g FW ([3]; line LP1): 106 ± 4 SE/g FW; Amount of tissue at the end of the preculture II stage ([3]; line LP1): 232.18; # SE/g FW ([3]; line LP3): 160 ± 5 SE/g FW; Amount of tissue at the end of the preculture II stage ([3]; line LP3): 118.22; Tissue growth (fold, mean ± SD) [5, 8]: 85.01 ± 1.71 fold

How did the “# SE/g FW ± sd” value [2] turn out when `OC[C@H]1O[C@@](CO)(O[C@H]2O[C@H](CO)[C@@H](O)[C@H](O)[C@H]2O)[C@@H](O)[C@@H]1O` [Sucrose, sucrose] was run?
The value was 213.3 ± 6 SE/g FW.

And the “Grams FW at the end of proliferation stage (from 1.5 g)” value [2]?
Its value is 11.05 ± 2 g.

What about the tissue morphology [2] of the same compound?
The tissue morphology was “predominantly suspensor type tissue and very few embryos”.

What about the “# SE/g FW ± sd” value [6] of the same compound?
The value was 126 ± 20 SE/g FW.

What about the “Average amount of tissue produced after 4 weeks in liquid (FW g)” value [6] of the same compound?
Its value is 592.06 g.

What about the embryos produced ([3]; line LP1, as stated in the text) of the same compound?
Its embryos produced is 11 embryos.

What about the “# SE/g FW” value ([3]; line LP1) of the same compound?
Its value is 11 ± 3 SE/g FW.

What about the “Amount … of the preculture II stage” value ([3]; line LP1) of the same compound?
Its value is 121.22.

And the “amount of tissue at the end of the 4 week-liquid period” value ([3]; line LP3, sucrose as sole carbon source)?
The value was 1278.18 g.

What about the “# SE/g FW” value ([3]; line LP3) of the same compound?
Its value is 100 ± 6 SE/g FW.

And the “Amount … of the preculture II stage” value ([3]; line LP3)?
The value was 1278.18.

And the tissue morphology [7]?
The tissue morphology was “Predominantly suspensor type tissue and very few embryos”.

And the “Tissue growth (fold, mean ± SD)” value [5, 8]?
Its value is 100.94 ± 12.0 fold.

What does the source list for `OC[C@@H](O)[C@@H](O)[C@H](O)[C@H](O)CO` [mannitol, reference compound]?
Osmolarity before inoculation (mmol/kg, mean ± SD) [4]: 76 ± 1 mmol/kg; Tissue growth (fold, mean ± SD) [5, 8]: 1.60 ± 0.13 fold; Tissue growth (fold, mean ± SD) ([5]; additional glucose 0.025%): 3.34 ± 0.22 fold
